# Measurements published in BindingDB's records for doi:10.1016/j.ejmech.2018.03.040 (University of Torino, 2018).
# pIC50: −log10 of the molar value.
# Biological target: Prostaglandin G/H synthase 2 (COX2, PTGS2) (Homo sapiens) (UniProt P35354)
# Assay: Inhibition of human COX2 assessed as reduction in PGF2alpha production by ELISA
# Chain of Prostaglandin G/H synthase 2 (COX2, PTGS2) (Homo sapiens) (P35354 whole entry, looked up): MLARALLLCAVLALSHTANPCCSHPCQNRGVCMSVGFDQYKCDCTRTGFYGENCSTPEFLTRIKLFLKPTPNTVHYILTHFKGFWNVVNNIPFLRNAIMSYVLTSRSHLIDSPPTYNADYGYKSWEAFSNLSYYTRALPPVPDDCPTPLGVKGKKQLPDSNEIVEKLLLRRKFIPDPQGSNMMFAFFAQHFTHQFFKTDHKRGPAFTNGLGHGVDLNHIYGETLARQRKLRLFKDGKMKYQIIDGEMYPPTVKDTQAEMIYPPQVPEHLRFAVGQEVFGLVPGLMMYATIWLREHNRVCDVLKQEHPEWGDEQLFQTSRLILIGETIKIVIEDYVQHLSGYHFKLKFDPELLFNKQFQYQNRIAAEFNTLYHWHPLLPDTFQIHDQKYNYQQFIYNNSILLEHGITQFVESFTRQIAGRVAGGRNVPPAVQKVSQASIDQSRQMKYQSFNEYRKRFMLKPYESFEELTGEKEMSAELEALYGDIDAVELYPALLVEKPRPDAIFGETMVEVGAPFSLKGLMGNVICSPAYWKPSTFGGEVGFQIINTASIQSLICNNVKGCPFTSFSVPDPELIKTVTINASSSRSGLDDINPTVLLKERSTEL
row,Structure (SMILES),pIC50
1,Oc1noc2ccc(Nc3cccc(C(F)(F)F)c3)cc12,< 4.00
2,Oc1noc2cccc(Nc3cccc(S(F)(F)(F)(F)F)c3)c12,< 4.00
3,O=[N+]([O-])c1cccc(Nc2cccc3onc(O)c23)c1,< 4.00
4,Oc1noc2cccc(Nc3cccc(C(F)(F)F)c3)c12,< 4.00
5,COc1ccc(Cn2nnc(O)c2C(=O)Nc2cccc(C(F)(F)F)c2)cc1OC,< 4.00
6,O=C(Nc1cccc(C(F)(F)F)c1)c1c(O)nnn1Cc1ccc(OC(F)(F)F)cc1,< 4.00
7,Oc1noc2cccc(Nc3cc(C(F)(F)F)cc(C(F)(F)F)c3)c12,< 4.00
